Laboratory results published in patent US20160051536A1, “COMPOSITIONS TO ALLEVIATE PRESYSTEMIC METABOLISM OF OPIOIDS” (VIRGINIA COMMONWEALTH UNIVERSITY, priority 2013, published 2016).

Test system: not given
Assay: not given
Details: in words; cited from earlier work

| Molecule | oral bioavailability |
| --- | --- |
| C=CCN1CC[C@]23c4c5ccc(O)c4O[C@H]2C(=O)CC[C@@]3(O)[C@H]1C5 [naloxone] | low |

Test system: UGT
Assay: Effect of inhibitors on buprenorphine-glucuronide formation in LS180 cells
Details: buprenorphine 10 μM, inhibitor 100 μM, 2 hours, vs control, p<0.05, n.d. = glucuronide not detected
Procedure: Unless otherwise indicated, the in vitro experiments described in the following section were conducted using human colon adenocarcinoma LS180 cells.
Human intestinal cells (LS180) were cultured in Dulbecco's modified Eagle's medium (DMEM) supplemented with 10% fetal bovine serum and 1% non-essential amino acids in microplates. […] The cells were rinsed with DPBS, aspirated, and the solutions (37° C.) were added to the cells and incubated for 2 hours. The reactions were stopped and protein was precipitated by adding 20% acetonitrile. After freezing (−80° C.) and thawing, samples were centrifuged and analyzed by HPLC using an Alltima HP C18 column (4.6×100 mm, 3 μm) with gradient elution (mobile phase A: acetonitrile; mobile phase B: 10% acetonitrile, 90% aqueous 25 mM ammonium acetate; 0-78% A) followed by detection by fluoresence (excitation 283 nm, emission 346 nm) and quantitation using Waters Empower 2 software. Results were analyzed by one-way ANOVA with Dunnett's post-test (control vs. inhibitors); asterisk designates p<0.05; n.d. designates not detected.

| Molecule | formation of buprenorphine glucuronide |
| --- | --- |
| COc1cc(/C=C/C(=O)CC(=O)/C=C/c2ccc(O)c(OC)c2)ccc1O [curcumin] | not detected |
| CCOc1cc(C2OCC(C)O2)ccc1O (stereo not shown) [ethyl vanillin propylene glycol acetal] | significantly decreased |
| CCOc1cc(C=O)ccc1O [ethyl vanillin] | significantly decreased |
| C=CCc1ccc(O)c(OC)c1 [eugenol] | significantly decreased |
| COc1ccccc1O [guaiacol] | significantly decreased |
| CC=Cc1ccc(O)c(OC)c1 [isoeugenol] | not detected |
| C=CCc1ccc(O)c(-c2cc(CC=C)ccc2O)c1 [magnolol] | significantly decreased |
| COC(=O)c1ccc(O)cc1 [methylparaben] | trend toward a decrease |
| CCCOC(=O)c1cc(O)c(O)c(O)c1 [propyl gallate] | not detected |
| CCCOC(=O)c1ccc(O)cc1 [propylparaben] | significantly decreased |
| O=c1c(O)c(-c2ccc(O)c(O)c2)oc2cc(O)cc(O)c12 [quercetin] | not detected |
| CC(=O)CCc1ccc(O)cc1 [rasketone] | significantly decreased |
| Oc1ccc(C=Cc2cc(O)cc(O)c2)cc1 [resveratrol] | not detected |
| COc1cc(C2Oc3cc([C@H]4Oc5cc(O)cc(O)c5C(=O)[C@@H]4O)ccc3OC2CO)ccc1O (stereo partly shown) [silybin] | significantly decreased |
| COc1cc(C=O)ccc1O [vanillin] | significantly decreased |
| COc1cc(CCC(C)=O)ccc1O [zingerone] | significantly decreased |
| COc1c(O)cc2oc3cc(O)c(CC=C(C)C)c(O)c3c(=O)c2c1CC=C(C)C [α-mangostin] | significantly decreased |
| pinoresinol | not detected |

Same assay, conditions: buprenorphine 10 μM, single inhibitors 24 μM, pairs 12 μM each, triple 8 μM each, p<0.05

| Molecule | formation of buprenorphine glucuronide |
| --- | --- |
| CC=Cc1ccc(O)c(OC)c1 [isoeugenol] | significantly inhibited |
| CCCOC(=O)c1cc(O)c(O)c(O)c1 [propyl gallate] | significantly inhibited |
| COc1cc(C=O)ccc1O [vanillin] | significantly inhibited |
